Laboratory results published in PubChem BioAssay AID1963428 (Molecular Pharmacology Branch, DTP, NCI, 2024).

System: 171881-019-R-J1-PDC complex spheroid growth, % test/control
Test: Anticancer human tumor 171881-019-R-J1-PDC patient-derived invasive breast carcinoma cell line growth inhibition [Asc]
Conditions: for IC50: curve of first compound; for viability, T/C: stronger effect = lower value
Summary of the method: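 Complex solid-tumor spheroids incorporating human endothelial and mesenchymal stem cells received single agents or combinations over half-log dilution ranges anchored to clinical Cmax.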
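Throughout, for viability, T/C: spheroids exposed to compounds for 7 days.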

CCN1C(C(=O)NC23CCC(C(=O)O)(CC2)CC3)C(c2cccc(Cl)c2F)C2(C(=O)Nc3cc(Cl)ccc32)C12CCCCC2 (stereo not given) + Cc1c(S(C)(=O)=O)c(-c2cc(F)cc(N3CCN(c4ccc(NS(=O)(=O)c5ccc(NC(CCN6CCC(C(=O)OCCCP(=O)(O)O)CC6)CSc6ccccc6)c(S(=O)(=O)C(F)(F)F)c5)cc4)CC3)c2)c(-c2ccc(Cl)cc2)n1C(C)C
IC50 (second compound 0.1 µM): > 3 µM
IC50 (second compound 0.316 µM): > 3 µM
IC50 (second compound 1 µM): > 3 µM
IC50 (second compound 3.16 µM): > 3 µM
IC50 (second compound 10 µM): > 3 µM
viability, T/C (second compound 0.1 µM, first compound 0.00949 µM): 82.5%
viability, T/C (second compound 0.1 µM, first compound 0.03 µM): 107%
viability, T/C (second compound 0.1 µM, first compound 0.0949 µM): 102%
viability, T/C (second compound 0.1 µM, first compound 0.3 µM): 90.5%
viability, T/C (second compound 0.1 µM, first compound 0.949 µM): 105%
viability, T/C (second compound 0.1 µM, first compound 3 µM): 120%
viability, T/C (second compound 0.316 µM, first compound 0.00949 µM): 100%
viability, T/C (second compound 0.316 µM, first compound 0.03 µM): 110%
viability, T/C (second compound 0.316 µM, first compound 0.0949 µM): 129%
viability, T/C (second compound 0.316 µM, first compound 0.3 µM): 105%
viability, T/C (second compound 0.316 µM, first compound 0.949 µM): 144%
viability, T/C (second compound 0.316 µM, first compound 3 µM): 146%
viability, T/C (second compound 1 µM, first compound 0.00949 µM): 116%
viability, T/C (second compound 1 µM, first compound 0.03 µM): 133%
viability, T/C (second compound 1 µM, first compound 0.0949 µM): 129%
viability, T/C (second compound 1 µM, first compound 0.3 µM): 117%
viability, T/C (second compound 1 µM, first compound 0.949 µM): 130%
viability, T/C (second compound 1 µM, first compound 3 µM): 167%
viability, T/C (second compound 3.16 µM, first compound 0.00949 µM): 152%
viability, T/C (second compound 3.16 µM, first compound 0.03 µM): 147%
viability, T/C (second compound 3.16 µM, first compound 0.0949 µM): 159%
viability, T/C (second compound 3.16 µM, first compound 0.3 µM): 162%
viability, T/C (second compound 3.16 µM, first compound 0.949 µM): 146%
viability, T/C (second compound 3.16 µM, first compound 3 µM): 163%
viability, T/C (second compound 10 µM, first compound 0.00949 µM): 192%
viability, T/C (second compound 10 µM, first compound 0.03 µM): 179%
viability, T/C (second compound 10 µM, first compound 0.0949 µM): 182%
viability, T/C (second compound 10 µM, first compound 0.3 µM): 185%
viability, T/C (second compound 10 µM, first compound 0.949 µM): 193%
viability, T/C (second compound 10 µM, first compound 3 µM): 172%
